From ChEMBL document CHEMBL1201862, “PubChem BioAssay data set” (2004)
Active and inactive are the calls of the source.

Columns and labels:
[1] = Luminescence Cell-Based Dose Retest to Confirm Inhibitors of Cancer Stem Cells. [Related pubchem assays (depositor defined):AID2717, AID2721]; assay type: functional; conditions: Homo sapiens
[2] = molecular target: Cytochrome P450 2C9 (Homo sapiens, UniProt P11712)
[3] = molecular target: Cytochrome P450 3A4 (Homo sapiens, UniProt P08684);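 also: CYP3A4 tested as one member of a cytochrome P450 panel screen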
[4] = molecular target: T1, Zinc finger protein mex-5 (Caenorhabditis elegans, UniProt Q9XUB2); test: MEX-5/TCR-2 RNA interaction inhibitors, dose response, biochemical, C. elegans, fluorescence polarization (AID 1960)
T1 sequence (Q9XUB2 whole entry): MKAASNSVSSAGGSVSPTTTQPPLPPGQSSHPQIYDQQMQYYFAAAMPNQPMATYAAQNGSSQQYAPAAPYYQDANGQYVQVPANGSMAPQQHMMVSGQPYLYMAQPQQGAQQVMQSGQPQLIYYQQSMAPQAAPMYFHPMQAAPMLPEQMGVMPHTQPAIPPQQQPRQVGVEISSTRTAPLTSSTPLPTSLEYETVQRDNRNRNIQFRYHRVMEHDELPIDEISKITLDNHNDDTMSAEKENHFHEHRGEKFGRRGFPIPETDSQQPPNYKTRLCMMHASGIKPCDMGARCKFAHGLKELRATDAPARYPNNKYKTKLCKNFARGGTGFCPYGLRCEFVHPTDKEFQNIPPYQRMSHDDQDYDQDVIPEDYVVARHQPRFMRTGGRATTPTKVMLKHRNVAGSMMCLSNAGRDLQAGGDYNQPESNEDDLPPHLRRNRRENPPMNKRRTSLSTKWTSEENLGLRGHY

[5] = molecular target: T2, RNA-binding protein pos-1 (Caenorhabditis elegans, UniProt G5EF15); test: inhibitors of POS-1/mex-3 RNA binding, dose response, biochemical, fluorescence polarization (AID 1964);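 also: purified POS-1 fused to maltose binding protein made in E. coli; potency of compounds blocking POS-1 binding to fluorescent RNA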
T2 sequence (G5EF15 whole entry): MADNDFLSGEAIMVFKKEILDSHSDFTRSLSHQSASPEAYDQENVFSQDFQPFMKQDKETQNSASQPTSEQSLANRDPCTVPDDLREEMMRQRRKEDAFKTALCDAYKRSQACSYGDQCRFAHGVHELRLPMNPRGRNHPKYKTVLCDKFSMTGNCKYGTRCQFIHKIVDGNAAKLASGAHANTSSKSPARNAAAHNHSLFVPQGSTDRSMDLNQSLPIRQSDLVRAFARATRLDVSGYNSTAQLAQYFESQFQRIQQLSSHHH

[6] = molecular target: T3, Cytochrome P450 1A2 (Homo sapiens, UniProt P05177);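 also: PubChem cytochrome P450 panel assay, CYP1A2 panel member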
T3 sequence (P05177 whole entry): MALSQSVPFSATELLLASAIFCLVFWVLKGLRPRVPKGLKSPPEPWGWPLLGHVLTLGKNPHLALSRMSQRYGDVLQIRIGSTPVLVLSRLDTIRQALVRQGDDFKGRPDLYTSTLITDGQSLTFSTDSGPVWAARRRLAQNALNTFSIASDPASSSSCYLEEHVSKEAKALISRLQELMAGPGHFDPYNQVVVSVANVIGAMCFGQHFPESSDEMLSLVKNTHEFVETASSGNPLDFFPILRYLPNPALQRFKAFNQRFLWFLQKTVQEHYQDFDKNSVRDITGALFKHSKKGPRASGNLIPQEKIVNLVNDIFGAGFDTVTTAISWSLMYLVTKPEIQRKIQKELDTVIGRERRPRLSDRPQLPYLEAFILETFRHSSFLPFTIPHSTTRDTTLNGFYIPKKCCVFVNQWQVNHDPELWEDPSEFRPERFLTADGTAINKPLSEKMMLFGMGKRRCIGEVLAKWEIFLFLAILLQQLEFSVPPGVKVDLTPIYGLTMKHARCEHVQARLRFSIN

[7] = molecular target: Cytochrome P450 2C19 (Homo sapiens, UniProt P33261); test: Cytochrome panel assay with activity outcomes. Panel member name: p450-cyp2c19 Compounds with AC50 equal or less than 10 uM are considered active; assay type: functional; conditions: read-out: AC50
[8] = molecular target: T4, Heat shock factor protein 1 (Mus musculus, UniProt P38532); test: HSF1 potentiators in luciferase reporter cells, confirmation, cell-based, NIH3T3, luminescence, dose retest (AID 435004); assay type: functional;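 also: stress induced by proteasome inhibitor MG132 added 30 min after compound; luciferase reporter driven by HSF1 response element in NIH3T3 cells; actives raise luminescence as potentiators of the MG132 stress response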
T4 sequence (P38532 whole entry): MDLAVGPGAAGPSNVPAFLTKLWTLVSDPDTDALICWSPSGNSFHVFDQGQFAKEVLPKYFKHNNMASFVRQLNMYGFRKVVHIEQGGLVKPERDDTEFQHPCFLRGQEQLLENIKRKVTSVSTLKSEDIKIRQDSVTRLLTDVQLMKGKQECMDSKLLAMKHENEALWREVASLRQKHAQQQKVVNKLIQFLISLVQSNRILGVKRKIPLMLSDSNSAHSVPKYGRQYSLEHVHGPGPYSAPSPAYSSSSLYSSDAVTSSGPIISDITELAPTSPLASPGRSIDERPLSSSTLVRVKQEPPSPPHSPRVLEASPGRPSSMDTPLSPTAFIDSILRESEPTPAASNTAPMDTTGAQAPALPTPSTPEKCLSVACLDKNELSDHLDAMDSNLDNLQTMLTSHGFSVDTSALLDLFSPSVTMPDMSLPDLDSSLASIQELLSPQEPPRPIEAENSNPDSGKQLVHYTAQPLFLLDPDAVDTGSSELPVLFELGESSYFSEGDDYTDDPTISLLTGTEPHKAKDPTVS

[9] = Shn3 3'UTR reporter inhibitors, dose response, cell-based, Clone20 osteoblasts, firefly luciferase, cherry-picked (AID 624132); assay type: functional;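 also: firefly luciferase luminescence from reporter carrying the Shn3 3'UTR in osteoblasts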
[10] = control 3'UTR Renilla luciferase suppression, dose response, counter-screen for Shn3 inhibitor project, cell-based, Clone20-Shn3RL, cherry-picked (AID 624133); assay type: functional
[11] = Luminescence Cell-Based Dose Response HTS to Identify Activators of Luciferase Translation or Activity in H4 […] Cells. [Related pubchem assays: 1829 (Project Summary), 1814 (Primary HTS)]; assay type: functional
[12] = Luminescence Cell-Based Dose Confirmation HTS to Identify Activators of 5'UTR Stem-Loop Driven Alpha-Synuclein mRNA Translation in H4 Neuroglioblastoma Cells. [Related pubchem assays: 1829 (Project Summary), 1814 (Primary HTS)]; assay type: functional
[13] = tested on: H4; test: Luminescence Cell-Based Dose Response HTS to Identify Activators of 5'UTR Stem-Loop Driven Prion Protein mRNA Translation in H4 Neuroglioblastoma Cells. [Related pubchem assays: 1829 (Project Summary), 1814 (Primary HTS)]; assay type: functional; conditions: Homo sapiens

Cytochrome P450 3A4, sequence (P08684 whole entry): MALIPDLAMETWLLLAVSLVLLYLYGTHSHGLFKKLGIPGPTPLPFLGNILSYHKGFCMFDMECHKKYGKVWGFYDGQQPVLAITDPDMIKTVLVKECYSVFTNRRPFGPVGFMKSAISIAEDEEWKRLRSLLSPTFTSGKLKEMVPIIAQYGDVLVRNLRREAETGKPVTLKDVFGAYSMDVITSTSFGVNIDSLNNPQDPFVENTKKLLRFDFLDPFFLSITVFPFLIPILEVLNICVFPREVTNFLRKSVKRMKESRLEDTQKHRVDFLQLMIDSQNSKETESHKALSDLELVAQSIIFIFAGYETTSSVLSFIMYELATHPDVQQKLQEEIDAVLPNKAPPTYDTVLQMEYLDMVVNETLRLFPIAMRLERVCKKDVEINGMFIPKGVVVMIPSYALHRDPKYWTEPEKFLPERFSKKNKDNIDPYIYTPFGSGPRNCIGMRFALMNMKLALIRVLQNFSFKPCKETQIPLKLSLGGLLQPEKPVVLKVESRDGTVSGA
Cytochrome P450 2C19, sequence (P33261 whole entry): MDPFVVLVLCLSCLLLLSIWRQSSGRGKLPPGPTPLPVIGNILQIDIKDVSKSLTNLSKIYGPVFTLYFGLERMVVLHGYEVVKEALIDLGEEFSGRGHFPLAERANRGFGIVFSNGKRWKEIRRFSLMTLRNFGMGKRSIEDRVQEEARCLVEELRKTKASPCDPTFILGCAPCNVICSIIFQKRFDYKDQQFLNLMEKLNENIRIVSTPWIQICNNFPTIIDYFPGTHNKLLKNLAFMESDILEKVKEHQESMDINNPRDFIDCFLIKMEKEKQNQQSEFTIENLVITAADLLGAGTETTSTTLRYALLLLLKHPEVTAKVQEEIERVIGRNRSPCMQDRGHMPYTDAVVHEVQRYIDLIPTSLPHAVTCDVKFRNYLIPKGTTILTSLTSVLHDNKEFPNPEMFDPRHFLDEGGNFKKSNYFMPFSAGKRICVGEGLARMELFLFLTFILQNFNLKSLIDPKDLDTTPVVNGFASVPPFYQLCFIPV
Cytochrome P450 2C9, sequence (P11712 whole entry): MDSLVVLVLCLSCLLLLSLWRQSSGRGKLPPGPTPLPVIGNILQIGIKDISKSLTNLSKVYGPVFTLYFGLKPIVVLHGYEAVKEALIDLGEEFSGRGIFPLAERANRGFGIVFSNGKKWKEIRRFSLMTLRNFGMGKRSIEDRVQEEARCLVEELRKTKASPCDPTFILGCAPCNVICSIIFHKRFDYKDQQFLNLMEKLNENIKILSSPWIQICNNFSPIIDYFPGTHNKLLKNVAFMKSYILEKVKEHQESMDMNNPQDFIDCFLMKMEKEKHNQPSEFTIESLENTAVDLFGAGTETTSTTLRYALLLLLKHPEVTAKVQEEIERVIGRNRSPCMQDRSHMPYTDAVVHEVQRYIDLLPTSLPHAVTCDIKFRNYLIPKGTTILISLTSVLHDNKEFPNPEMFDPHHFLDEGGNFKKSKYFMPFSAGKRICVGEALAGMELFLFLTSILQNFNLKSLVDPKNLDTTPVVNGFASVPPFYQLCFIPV

COc1ccc(Cn2c3ccc(OC)cc3c3nc4ccccc4nc32)cc1
AC50 [1]: 13 µM (active)

COc1ccc(-c2csc(NC(=O)Cn3nc(C)cc3C)n2)cc1
AC50 [2]: 0.794 µM (inconclusive)
AC50 [3]: 15.8 µM (inconclusive)

COc1ccc(N/C=C2/C(=O)N(c3cccc(C)n3)C(=O)c3ccccc32)cc1
EC50 [4]: > 300 µM (not active)
EC50 [5]: > 300 µM (not active)

O=C(/C=C/c1ccc2c(c1)OCO2)NCCSCc1ccc(Cl)cc1
AC50 [1]: 0.922 µM (active)

O=c1c(-c2cccs2)nc2cnc(N3CCOCC3)nc2n1Cc1ccc(F)cc1
AC50 [3]: 2.51 µM (inconclusive)
AC50 [6]: 20 µM (inconclusive)

N#Cc1ccc(-c2ccc(F)cc2)nc1Sc1ccccc1
AC50 [2]: 5.01 µM (inconclusive)
AC50 [3]: 12.6 µM (inconclusive)
AC50 [7]: 5.01 µM (inconclusive)

COc1ccccc1NC(=O)Nc1nc(CC(=O)N2CCN(c3ccccc3)CC2)cs1
EC50 [8]: > 260 µM (inactive)

C/C(NCCN1CCCCC1)=C1/C(=O)NC(=O)N(c2ccc(Cl)cc2)C1=O
EC50 [4]: > 300 µM (not active)
EC50 [5]: > 300 µM (not active)

COC(=O)CCCC1=CC2=CC(=O)C(C)(OC(=O)c3cnc4ccccc4n3)C(=O)C2=CO1 (stereo unspecified)
EC50 [4]: 12.3 µM (active)
EC50 [5]: 12.7 µM (active)

CN1C(=O)c2cccc(NCCCCCCN3C(=O)c4ccccc4C3=O)c2C1=O
AC50 [9]: 5.57 µM (active)
AC50 [10]: 17.2 µM (active)

COc1ccc(-c2sc3cc4c(cc3c2C#CC2(O)CCCCC2)OCO4)cc1
AC50 [1]: 4.07 µM (active)

O=c1c(-c2cccc(F)c2)nc2cncnc2n1C1CC1
AC50 [3]: 12.6 µM (inconclusive)

Cc1ccc(NS(=O)(=O)c2sc3ccc(Cl)cc3c2C)cc1
AC50 [1]: 3.78 µM (active)

Cc1onc(-c2ccccc2)c1NC(=O)N(CCC#N)Cc1ccccc1
EC50 [8]: > 260 µM (inactive)

CC(C)c1ccc(N2C(=O)CC(Sc3nc4ccccc4o3)C2=O)cc1 (stereo unspecified)
AC50 [3]: 39.8 µM (inconclusive)
AC50 [6]: 5.01 µM (inconclusive)

CC(=O)c1ccc2c(c1)C1C=CCC1C(c1cc3c(cc1Br)OCO3)N2 (stereo unspecified)
EC50 [4]: > 300 µM (not active)
EC50 [5]: > 300 µM (not active)

CCNc1ncc2nc(-c3ccc(OC)cc3)c(=O)n(-c3ccc(OC)cc3)c2n1
AC50 [3]: 12.6 µM (inconclusive)

O=C(CN1CCOCC1)N(c1ccccc1)c1ccc2ccccc2c1
EC50 [8]: > 260 µM (inactive)

Cc1ccn(CC(=O)N2CCCC(N3CCN(c4ccc(F)cc4)CC3)C2)n1 (stereo unspecified)
EC50 [8]: > 260 µM (inactive)

Cc1cc(C)cc(N2C(=O)/C(=C\c3ccc(N4CCN(C)CC4)o3)C(=O)NC2=S)c1
EC50 [4]: > 300 µM (inconclusive)
EC50 [5]: > 300 µM (inconclusive)

COCCNC(=O)CSc1nc2cc(OC)c(OC)cc2c(=O)n1Cc1ccco1
AC50 [3]: 3.55 µM (inconclusive)
AC50 [7]: 20 µM (inconclusive)

N#CCCn1c(=O)c(-c2ccc(F)cc2)nc2cnc(N3CCNCC3)nc21
AC50 [3]: 25.1 µM (inconclusive)

CC(C)NCC(O)COCc1ccc(Cl)cc1 (stereo unspecified)
EC50 [8]: > 260 µM (inactive)

CS(=O)(=O)N1CCC[C@@]2(CCN(C(=O)Nc3cccc(F)c3)C2)C1
AC50 [3]: 12.6 µM (inconclusive)

CCOC(=O)N1CCN(/C=C(\C#N)c2nc3ccccc3s2)CC1
EC50 [11]: 14.7 µM (active)
EC50 [12]: 38 µM (active)
EC50 [4]: > 300 µM (not active)
EC50 [13]: 37.5 µM (active)
EC50 [5]: > 300 µM (not active)

COCC1CCN(C(=O)CC2C(=O)NCCN2Cc2cccc(Oc3ccccc3)c2)CC1 (stereo unspecified)
EC50 [4]: > 300 µM (not active)
EC50 [5]: > 300 µM (not active)

COc1ccc(O[C@H]2C=C[C@@H](c3ccccc3)O[C@H]2CO/N=C(/C)CCC(=O)OC[C@@H]2O[C@H](C#Cc3ccccc3)C=C[C@@H]2Oc2ccc(C)cc2)cc1
AC50 [3]: 3.16 µM (inconclusive)
AC50 [7]: 0.126 µM (inconclusive)

CCN(CC)c1ccc(N/C=C2/C(=O)NC(=O)N(c3ccccc3)C2=O)cc1
EC50 [4]: > 300 µM (not active)
EC50 [5]: > 300 µM (not active)

CC(=O)Nc1ccc(NC(=O)c2ccc(NS(=O)(=O)c3cc(C(C)(C)C)cc(C)c3C)cc2)cc1
EC50 [8]: 12.5 µM (active)

CCN(CC(=O)Nc1ccc(NC(C)=O)cc1)C(=O)c1ccccc1CCc1ccccc1
AC50 [1]: > 195 µM (inactive)

Cn1c(S)nnc1CNS(=O)(=O)c1ccc(Cl)cc1
AC50 [3]: 15.8 µM (inconclusive)

CC(c1ccccc1)N1CC(C(=O)N2CCN(c3ccc(F)cc3)CC2)CC1=O (stereo unspecified)
EC50 [8]: > 260 µM (inactive)

CC(NC(=O)c1ccc(Cl)cc1)c1nnc(SCc2ccc([N+](=O)[O-])cc2)n1C (stereo unspecified)
AC50 [2]: 28.2 µM (inconclusive)
AC50 [3]: 8.91 µM (inconclusive)
AC50 [6]: 15.8 µM (inconclusive)
AC50 [7]: 39.8 µM (inconclusive)

Cc1c(/C=N/NC(=O)c2cc(O)nc(O)n2)c2ccccn2c1C(=O)c1ccccc1
EC50 [4]: > 300 µM (inconclusive)
EC50 [5]: > 300 µM (not active)

CCOc1cccc2cc(C(N)=O)/c(=N/Cc3ccccc3)oc12
AC50 [3]: 14.1 µM (inconclusive)

COC(=O)c1ccc(C2Nc3ccc(/C(C)=N/NC(=O)C(OC)c4ccccc4)cc3C3C=CCC32)cc1 (stereo unspecified)
EC50 [4]: 35.2 µM (active)
EC50 [5]: > 300 µM (not active)

O=C(CCC1CCCC1)/N=C1\SC2CS(=O)(=O)CC2N1c1ccccc1F (stereo unspecified)
EC50 [8]: > 260 µM (inactive)

Nc1nnnn1/N=C\c1ccc(Cl)c([N+](=O)[O-])c1
EC50 [8]: > 260 µM (inactive)

O=[N+]([O-])c1ccc(/N=C/C=C(\O)c2ccc(Br)cc2)cc1
EC50 [4]: > 300 µM (not active)
EC50 [5]: > 300 µM (not active)

Cc1noc(NS(=O)(=O)c2cccc3c(N(C)C)cccc23)c1C [BMS-182874]
AC50 [3]: 20 µM (inconclusive)

CCCCN1CCCC[C@H]1C(=O)Nc1c(C)cccc1C [LEVOBUPIVACAINE]
AC50 [3]: 10 µM (inconclusive)
